Experimental data published in the NIST ThermoML archive (doi:10.1016/j.jct.2017.01.016).

Assay: xn = mol fraction of the nth substance listed
Conditions: 101 kPa, Liquid; for viscosity: Capillary tube (Ostwald / Ubbelohde) method; for speed of sound: Frequency=3 MHz, Linear variable-path acoustic interferometer

Cc1ccccc1C [1,2-dimethylbenzene] + C1COCCO1
Conditions	speed of sound [m/s]	viscosity [mPa·s]
293.15 K, x2 = 0	1367.7	0.8066
293.15 K, x2 = 0.0672	1361.7	0.8314
293.15 K, x2 = 0.1391	1355.5	0.8598
293.15 K, x2 = 0.2103	1350	0.8896
293.15 K, x2 = 0.2853	1345.3	0.9224
293.15 K, x2 = 0.3543	1341.7	0.9541
293.15 K, x2 = 0.4293	1338.8	0.9899
293.15 K, x2 = 0.5092	1336.9	1.03
293.15 K, x2 = 0.581	1336.5	1.067
293.15 K, x2 = 0.6518	1337.4	1.104
293.15 K, x2 = 0.7248	1339.8	1.144
293.15 K, x2 = 0.7888	1343.5	1.18
293.15 K, x2 = 0.8595	1349.3	1.221
293.15 K, x2 = 0.9298	1357.1	1.263
298.15 K, x2 = 0	1347.5	0.7576
298.15 K, x2 = 0.0672	1341.5	0.7791
298.15 K, x2 = 0.1391	1335.1	0.8033
298.15 K, x2 = 0.2103	1329.6	0.829
298.15 K, x2 = 0.2853	1324.8	0.8576
298.15 K, x2 = 0.3543	1321	0.8851
298.15 K, x2 = 0.4293	1317.9	0.9162
298.15 K, x2 = 0.5092	1315.9	0.9509
298.15 K, x2 = 0.581	1315.4	0.9833
298.15 K, x2 = 0.6518	1316.2	1.016
298.15 K, x2 = 0.7248	1318.3	1.052
298.15 K, x2 = 0.7888	1321.9	1.083
298.15 K, x2 = 0.8595	1327.4	1.12
298.15 K, x2 = 0.9298	1334.9	1.157
303.15 K, x2 = 0	1329.4	0.7132
303.15 K, x2 = 0.0672	1323	0.7321
303.15 K, x2 = 0.1391	1316.5	0.7527
303.15 K, x2 = 0.2103	1311	0.7747
303.15 K, x2 = 0.2853	1306	0.7992
303.15 K, x2 = 0.3543	1302	0.823
303.15 K, x2 = 0.4293	1298.6	0.8502
303.15 K, x2 = 0.5092	1296.3	0.8806
303.15 K, x2 = 0.581	1295.5	0.909
303.15 K, x2 = 0.6518	1296	0.9382
303.15 K, x2 = 0.7248	1298	0.9693
303.15 K, x2 = 0.7888	1301.3	0.9977
303.15 K, x2 = 0.8595	1306.5	1.03
303.15 K, x2 = 0.9298	1313.7	1.063
308.15 K, x2 = 0	1313.3	0.669
308.15 K, x2 = 0.0672	1306.3	0.6862
308.15 K, x2 = 0.1391	1299.9	0.7045
308.15 K, x2 = 0.2103	1293.9	0.724
308.15 K, x2 = 0.2853	1288.5	0.746
308.15 K, x2 = 0.3543	1284.3	0.7675
308.15 K, x2 = 0.4293	1280.4	0.792
308.15 K, x2 = 0.5092	1277.8	0.8194
308.15 K, x2 = 0.581	1276.7	0.8452
308.15 K, x2 = 0.6518	1276.8	0.8715
308.15 K, x2 = 0.7248	1278.4	0.8997
308.15 K, x2 = 0.7888	1281.2	0.9256
308.15 K, x2 = 0.8595	1285.9	0.9546
308.15 K, x2 = 0.9298	1292.5	0.9846
313.15 K, x2 = 0	1298.5	0.6315
313.15 K, x2 = 0.0672	1291	0.647
313.15 K, x2 = 0.1391	1284	0.6637
313.15 K, x2 = 0.2103	1277.8	0.6813
313.15 K, x2 = 0.2853	1272.1	0.7012
313.15 K, x2 = 0.3543	1267.6	0.7205
313.15 K, x2 = 0.4293	1263.5	0.7428
313.15 K, x2 = 0.5092	1260.5	0.7677
313.15 K, x2 = 0.581	1259	0.7912
313.15 K, x2 = 0.6518	1258.6	0.8152
313.15 K, x2 = 0.7248	1259.6	0.8408
313.15 K, x2 = 0.7888	1262	0.8642
313.15 K, x2 = 0.8595	1266	0.8906
313.15 K, x2 = 0.9298	1271.8	0.9176
318.15 K, x2 = 0	1285.2	0.5972
318.15 K, x2 = 0.0672	1277.2	0.6114
318.15 K, x2 = 0.1391	1269.7	0.6267
318.15 K, x2 = 0.2103	1263	0.6427
318.15 K, x2 = 0.2853	1256.9	0.661
318.15 K, x2 = 0.3543	1252.1	0.6786
318.15 K, x2 = 0.4293	1247.7	0.699
318.15 K, x2 = 0.5092	1244.1	0.7218
318.15 K, x2 = 0.581	1242.1	0.743
318.15 K, x2 = 0.6518	1241.3	0.7649
318.15 K, x2 = 0.7248	1241.7	0.7884
318.15 K, x2 = 0.7888	1243.4	0.8098
318.15 K, x2 = 0.8595	1246.6	0.834
318.15 K, x2 = 0.9298	1251.6	0.859
